# Assay results: patent US20050159599A1, “Cyclic compound, process for producing the same, and pest control agent” (priority 2002, published 2005)
# Assays:
# Plutella xylostella [1] = assay: Pest control effect for Plutella xylostella by plant seedling foot soil surface irrigation treatment, 30th day (Test Example 7); assay type: in vivo; conditions: 20 mg/plant; soil surface irrigation of cabbage; larvae counted on the 30th day
# Description: (§1) Pest Control Effect for Plutella xylostella by Plant Seedling Foot Soil Surface Irrigation Treatment With Pesticidal Solution
# (§2) A pesticidal solution which was prepared by dissolving 20 mg of test compound (represented by the compound Nos. in the above Examples) in 0.2 ml of acetone containing Tween 20 (trade name) and then diluting to 3 ml with ion-exchange water, was irrigated on the plant foot soil surface of 2.5-leave stage cabbage. This cabbage plant was transplanted to 1/5000a pot, and left in a facility wherein imagoes of Plutella xylostella were set free to lay eggs successively. On the 30th day after, the number of lavae on the plant was examined. The rate of pest control was calculated by the following formula. rate of pest control (%)=(1−number of pests in treated plant/number of pests in non-treated plant)×100
# Spodoptera litura [2] = assay: Insecticidal effect for Spodoptera litura by immersion treatment of host crop root (Test Example 4); assay type: in vivo; conditions: 25 ppm, soybean root immersion 5 days, second-instar larvae of Spodoptera litura, fifth day after; for pest or weed control at 25 ppm: 120 h, read-out: rate of dead pests (%)
# Procedure, shortened: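 Soil was washed from the roots of soybean plants at the primary-leaf stage, and the roots were immersed in a pesticidal solution held in a light-shielded 100 ml Erlenmeyer flask. The solution was made from acetone containing Tween 20, diluted with ion-exchange water. Five days after root immersion, two primary leaves were cut and placed in a 180 ml cup with ten second-instar Spodoptera litura larvae, then kept at 25° C. Survivors were counted five days later. The rate of dead pests (%) was calculated as dead pests divided by test pests, times 100.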
# Spodoptera litura [3] = assay: Insecticidal effect for Spodoptera litura by spraying treatment to host crop (Test Example 2); assay type: in vivo; conditions: 100 ppm, sprayed on soybean, third-instar larvae of Spodoptera litura, fifth day after; for pest or weed control at 100 ppm: 120 h, read-out: rate of dead pests (%)
# Procedure, shortened: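 Soybean plants with fully developed primary leaves sprayed to runoff with 100 ppm compound (acetone/Tween 20, sticker water). Dried leaves given to ten third-instar larvae at 25° C.; survivors counted on day 5, mortality as dead/tested × 100.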
# Plutella xylostella [4] = assay: Insecticidal effect for Plutella xylostella by immersion treatment of host crop root (Test Example 3); assay type: in vivo; conditions: 25 ppm, cabbage root immersed 5 days, ten second-instar larvae on stem and leaves, counted on the fifth day, 24° C.; for pest or weed control at 25 ppm: Plutella xylostella, 120 h, read-out: rate of dead pests (%)
# Description: Insecticidal Effect for Plutella xylostella by Immersion Treatment of Host Crop Root
# Roots of 4-leave stage cabbage was washed with tap water to remove soil, and then immersed in a pesticidal solution which was prepared by dissolving 5 mg of test compound (represented by the compound Nos. in the above Examples) in 0.5 ml of acetone containing Tween 20 (trade name) and then diluting it to the prescribed concentration (25 ppm) with ion-exchange water, and which was filled in a light-shielded Erlenmeyer flask (100 ml). On the fifth day after immersion of root, the root was cut off, and the stem and leaves were put into an ice cream cup (180 ml). Ten second-instar larvae of Plutella xylostella were set free therein, and the cup was left in a temperature-controlled breeding room (24° C.). On the fifth day after, the number of surviving Plutella xylostella was examined. The rate of dead pests was calculated by the following formula. rate of dead pests (%)=(number of dead pests/number of test pests)×100
# Plutella xylostella [5] = assay: Insecticidal effect for Plutella xylostella by immersion treatment of host crop (Test Example 1); assay type: in vivo; conditions: cabbage leaf dipped, second-instar larvae of Plutella xylostella, fifth day after; for pest or weed control at 100 ppm: foliar, 120 h, read-out: rate of dead pests (%); for rate of dead pests (%): 100 ppm
# Procedure, shortened: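 Cabbage leaf discs dipped in 100 ppm compound (acetone/Tween 20, diluted in sticker water), dried, then infested with ten second-instar larvae and kept at 24° C. Survivors counted on day 5; mortality expressed as dead/tested pests ×100.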
# Plutella xylostella [6] = assay: Pest control effect for Plutella xylostella by plant seedling foot soil surface irrigation treatment, 24th day (Test Example 6); assay type: in vivo; conditions: 20 mg/plant; soil surface irrigation of cabbage; larvae counted on the 24th day
# Description: as §1
# as §2, with “24th” for “30th”, “non-treated-plant)×100” for “non-treated plant)×100”
# Plutella xylostella [7] = assay: Insecticidal effect for Plutella xylostella by seed treatment (Test Example 8); assay type: in vivo; conditions: cabbage seed treatment, leaves cut 31st day after sowing, first-instar larvae, third day after
# Description: Insecticidal Effect for Plutella xylostella by Seed Treatment 4% aqueous solution of PVA (polyvinylalcohol) was applied to seeds of cabbage. Then the seeds were powdered with test compound (represented by the compound Nos. in the above Examples), and sowed in a Φ 6 cm in diameter Jiffy Pot (trade name). On the 31th day after sowing, the stem and leaves were cut off, and were put into an ice cream cup (180 ml). Fifteen first-instar larvae of Plutella xylostella were set free therein, and the cup was left in a temperature-controlled breeding room (24° C.). On the third day after, the number of surviving Plutella xylostella was examined. The rate of dead pests was calculated by the following formula. rate of dead pests (%)=(number of dead pests/number of test pests)×100
structure (smiles),measurement,setting,value
"O=C(c1c(F)cccc1F)N1COCN(c2ccc([S+]([O-])C(F)F)cc2F)C1=O (stereo not shown) [I-42, 3-(2,6-difluorobenzoyl)-5-[4-(difluoromethylsulfinyl)-2-fluorophenyl]tetrahydro-4H-1,3,5-oxadiazin-4-one]",rate of pest control (%),Plutella xylostella [1],94%
same,pest or weed control at 25 ppm,Spodoptera litura [2],100%
same,pest or weed control at 100 ppm,Spodoptera litura [3],100%
same,pest or weed control at 25 ppm,Plutella xylostella [4],100%
same,pest or weed control at 100 ppm,Plutella xylostella [5],100%
O=C(c1c(F)cccc1F)N1COCN(c2ccc(SC(F)(F)F)cc2)C1=O [I-25],rate of pest control (%),Plutella xylostella [6],88%
same,rate of dead pests (%),Plutella xylostella [5],100%
"CC(C)N1CN(C(=O)c2c(F)cccc2F)C(=O)N(c2ccc(Cl)cc2)C1 [III-3, 1-(4-chlorophenyl)-3-(2,6-difluorobenzoyl)-5-isopropyltetrahydro-1,3,5-triazin-2(1H)-one]",melting point,,130 to 131 °C
C[S+]([O-])c1ccc(N2COCN(C(=O)c3c(F)cccc3F)C2=O)c(F)c1 (stereo not shown) [I-29],rate of dead pests (%),Spodoptera litura [2],100%
same,rate of pest control (%),Plutella xylostella [6],92%
same,rate of dead pests (%),Spodoptera litura [3],100%
same,rate of dead pests (%),Plutella xylostella [4],100%
same,rate of dead pests (%),Plutella xylostella [5],100%
"O=C(c1c(F)cccc1F)N1COCN(c2ccc([S+]([O-])C(F)(C(F)(F)F)C(F)(F)F)cc2F)C1=O (stereo not shown) [I-159, 3-(2,6-difluorobenzoyl)-5-[2-fluoro-4-(1,1,1,2,3,3,3-heptafluoro-2-propylsulfinyl)phenyl]tetrahydro-4H-1,3,5-oxadiazin-4-one]",melting point,,40 to 45 °C
"O=C(c1c(F)cccc1F)N1CSCN(c2ccc(Cl)cc2)C1=O [II-1, 3-(4-chlorophenyl)-5-(2,6-difluorobenzoyl)tetrahydro-4H-1,3,5-thiadiazin-4-one]",melting point,,128.5 to 130.5 °C
"O=C(c1c(F)cccc1F)N1COCN(c2ccc(SC(F)(F)F)cc2F)C1=O [I-44, 3-(2,6-difluorobenzoyl)-5-[2-fluoro-4-(trifluoromethylthio)phenyl]tetrahydro-4H-1,3,5-oxadiazin-4-one]",rate of pest control (%),Plutella xylostella [1],96%
same,pest or weed control at 25 ppm,Spodoptera litura [2],100%
same,rate of dead pests (%),Plutella xylostella [7]; 1 mg/seed,100%
same,rate of dead pests (%),Plutella xylostella [7]; 5 mg/seed,97%
same,pest or weed control at 100 ppm,Spodoptera litura [3],100%
same,pest or weed control at 25 ppm,Plutella xylostella [4],100%
same,pest or weed control at 100 ppm,Plutella xylostella [5],100%
O=C(c1c(F)cccc1F)N1CSCN(c2cc(Cl)c(F)c(Cl)c2F)C1=O [II-10],rate of dead pests (%),Spodoptera litura [2],100%
same,rate of pest control (%),Plutella xylostella [6],88%
same,rate of dead pests (%),Spodoptera litura [3],100%
same,rate of dead pests (%),Plutella xylostella [5],100%
C#CCN1CN(C(=O)c2c(F)cccc2F)C(=O)N(c2ccc([S+]([O-])C(F)(F)C(F)Cl)cc2F)C1 (stereo not shown) [III-89],rate of pest control (%),Plutella xylostella [6],92%
same,rate of dead pests (%),Spodoptera litura [3],100%
same,rate of dead pests (%),Plutella xylostella [4],100%
same,rate of dead pests (%),Plutella xylostella [5],100%
O=C(c1c(F)cccc1F)N1COCN(c2cc(Cl)c(F)c(Cl)c2F)C1=O [I-4],rate of dead pests (%),Spodoptera litura [2],100%
same,rate of pest control (%),Plutella xylostella [6],92%
same,rate of dead pests (%),Spodoptera litura [3],100%
same,rate of dead pests (%),Plutella xylostella [4],95%
"CN1CN(C(=O)c2c(F)cccc2F)C(=O)N(c2ccc(SC(F)(F)F)cc2F)C1 [III-160, 1-(2,6-difluorobenzoyl)-3-[2-fluoro-4-(trifluoromethylthio)phenyl]-5-methyltetrahydro-1,3,5-triazin-2(1H)-one]",rate of pest control (%),Plutella xylostella [1],91%
same,pest or weed control at 100 ppm,Spodoptera litura [3],100%
same,pest or weed control at 25 ppm,Plutella xylostella [4],90%
same,pest or weed control at 100 ppm,Plutella xylostella [5],100%
O=C(c1c(F)cccc1F)N1CNCN(c2ccc(SC(F)(F)C(F)Cl)cc2F)C1=O (stereo not shown) [III-78],rate of pest control (%),Plutella xylostella [6],83%
same,rate of dead pests (%),Spodoptera litura [3],100%
same,rate of dead pests (%),Plutella xylostella [5],100%
"CN1CN(C(=O)c2c(F)cccc2F)C(=O)N(c2ccc([S+]([O-])C(F)(F)F)cc2F)C1 (stereo not shown) [III-164, 1-(2,6-difluorobenzoyl)-3-[2-fluoro-4-(trifluoromethylsulfinyl)phenyl]-5-methyltetrahydro-1,3,5-triazin-2(1H)-one]",rate of pest control (%),Plutella xylostella [1],95%
same,pest or weed control at 25 ppm,Spodoptera litura [2],100%
same,pest or weed control at 100 ppm,Spodoptera litura [3],100%
same,pest or weed control at 100 ppm,Plutella xylostella [5],100%
"O=C(c1c(F)cccc1F)N1C[S+]([O-])CN(c2ccc(Cl)cc2)C1=O (stereo not shown) [II-2, 3-(4-chlorophenyl)-5-(2,6-difluorobenzoyl)tetrahydro-4H-1,3,5-thiadiazin-4-one-1-oxide]",melting point,,220 to 220.5 °C
"O=C(c1c(F)cccc1F)N1COCN(c2ccc([S+]([O-])C(F)(F)F)cc2F)C1=O (stereo not shown) [I-45, 3-(2,6-difluorobenzoyl)-5-[2-fluoro-4-(trifluoromethylsulfinyl)phenyl]tetrahydro-4H-1,3,5-oxadiazin-4-one]",rate of pest control (%),Plutella xylostella [1],98%
same,pest or weed control at 25 ppm,Spodoptera litura [2],100%
same,pest or weed control at 100 ppm,Spodoptera litura [3],100%
"O=C(c1c(F)cccc1F)N1CS(=O)(=O)CN(c2ccc(Cl)cc2)C1=O [II-3, 3-(4-chlorophenyl)-5-(2,6-difluorobenzoyl)tetrahydro-4H-1,3,5-thiadiazin-4-one-1,1-dioxide]",melting point,,274 to 275 °C
CN1CN(C(=O)c2c(F)cccc2F)C(=O)N(c2ccc([S+]([O-])C(F)(F)C(F)Cl)cc2F)C1 (stereo not shown) [III-84],rate of pest control (%),Plutella xylostella [6],100%
same,rate of dead pests (%),Spodoptera litura [3],100%
same,rate of dead pests (%),Plutella xylostella [5],100%
O=C(c1c(F)cccc1F)N1COCN(c2ccc([S+]([O-])C(F)(F)F)cc2)C1=O (stereo not shown) [I-26],rate of dead pests (%),Spodoptera litura [2],100%
same,rate of pest control (%),Plutella xylostella [6],100%
same,rate of dead pests (%),Spodoptera litura [3],100%
same,rate of dead pests (%),Plutella xylostella [4],100%
same,rate of dead pests (%),Plutella xylostella [5],100%
